Consider 10 compounds from patent US11339128B2 (Firmenich Incorporated, priority 2014, dated 2022).

Data set [1] deals with T1, T1R2/T1R3 taste receptor (Homo sapiens, UniProt Q7RTX0+Q8TE23).
T1 sequence (Q8TE23 20-839): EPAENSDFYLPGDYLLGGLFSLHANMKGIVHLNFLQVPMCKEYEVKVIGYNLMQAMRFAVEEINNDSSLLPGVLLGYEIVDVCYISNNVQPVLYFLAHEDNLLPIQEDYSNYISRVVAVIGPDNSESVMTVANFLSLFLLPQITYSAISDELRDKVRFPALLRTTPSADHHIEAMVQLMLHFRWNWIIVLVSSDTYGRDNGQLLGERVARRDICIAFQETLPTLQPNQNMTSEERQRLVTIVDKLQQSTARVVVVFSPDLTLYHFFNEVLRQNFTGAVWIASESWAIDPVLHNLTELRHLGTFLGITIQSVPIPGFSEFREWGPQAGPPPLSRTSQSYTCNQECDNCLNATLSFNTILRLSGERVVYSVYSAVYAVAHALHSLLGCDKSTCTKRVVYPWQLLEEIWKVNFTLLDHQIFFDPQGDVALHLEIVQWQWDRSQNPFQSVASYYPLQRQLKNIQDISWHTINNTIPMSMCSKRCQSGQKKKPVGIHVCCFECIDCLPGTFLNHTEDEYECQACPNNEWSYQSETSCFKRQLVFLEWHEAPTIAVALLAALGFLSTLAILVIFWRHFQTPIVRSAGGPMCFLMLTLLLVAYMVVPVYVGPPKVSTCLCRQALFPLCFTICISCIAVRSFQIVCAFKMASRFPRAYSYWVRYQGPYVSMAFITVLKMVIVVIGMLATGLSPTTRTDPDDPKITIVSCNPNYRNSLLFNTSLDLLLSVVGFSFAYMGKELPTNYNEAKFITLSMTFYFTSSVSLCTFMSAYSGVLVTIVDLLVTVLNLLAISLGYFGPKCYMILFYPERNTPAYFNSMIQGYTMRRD
T1 sequence (Q7RTX0 21-852): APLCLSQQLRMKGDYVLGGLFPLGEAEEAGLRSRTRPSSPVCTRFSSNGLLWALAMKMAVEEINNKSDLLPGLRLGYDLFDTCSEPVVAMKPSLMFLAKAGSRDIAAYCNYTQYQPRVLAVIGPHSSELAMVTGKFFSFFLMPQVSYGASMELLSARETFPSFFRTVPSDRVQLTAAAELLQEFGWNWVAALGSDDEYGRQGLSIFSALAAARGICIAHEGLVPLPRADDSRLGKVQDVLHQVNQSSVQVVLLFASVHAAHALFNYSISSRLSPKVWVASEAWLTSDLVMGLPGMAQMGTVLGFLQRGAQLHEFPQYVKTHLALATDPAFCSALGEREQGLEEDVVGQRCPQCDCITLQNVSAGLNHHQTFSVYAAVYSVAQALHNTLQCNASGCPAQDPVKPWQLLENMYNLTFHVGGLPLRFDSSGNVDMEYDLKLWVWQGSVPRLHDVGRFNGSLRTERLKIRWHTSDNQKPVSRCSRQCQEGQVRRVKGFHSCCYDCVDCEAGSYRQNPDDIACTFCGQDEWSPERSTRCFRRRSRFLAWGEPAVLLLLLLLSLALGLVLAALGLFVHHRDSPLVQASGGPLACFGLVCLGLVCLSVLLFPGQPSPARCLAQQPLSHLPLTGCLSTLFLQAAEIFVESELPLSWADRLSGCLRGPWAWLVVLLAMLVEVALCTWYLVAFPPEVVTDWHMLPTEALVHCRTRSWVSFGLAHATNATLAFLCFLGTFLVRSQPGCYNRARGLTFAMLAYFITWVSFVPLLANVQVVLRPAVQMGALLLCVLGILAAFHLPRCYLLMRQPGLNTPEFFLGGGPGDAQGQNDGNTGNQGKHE
As to the kind of experiment: Receptor-based assay: sweetener EC50 enhancement ratio with and without test compound. The format is cell-based. To be noted: for Sucrose Enhancement EC50 Ratio: sweetener sucrose; for Fructose Enhancement EC50 Ratio: sweetener fructose; for Sucralose Enhancement EC50 Ratio: sweetener sucralose. Put shortly:
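Sweetener (sucrose, sucralose, fructose) EC50 measured alone and with 1, 3, 10 or 50 μM test compound. Enhancement ratio = EC50 without/with compound; A = >1 to <10, B = 10–20, C = >20.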

A short description of data set [2]: Sensory paired-comparison sweetness test of sweetener (sucrose or high-fructose corn syrup) with test compound. It counts as in vivo, human. To be noted: test compound 10 ppm or less with 6% sucrose, low sodium buffer pH 7.1; sucrose-alone concentration of equivalent perceived sweetness. The protocol:
Test samples containing either a sweetener (sucrose or high-fructose corn syrup) alone or in combination with a test compound were presented in pairs to a group of panelist who were asked to determine which of the samples was sweeter. Subjects refrained from eating or drinking (except water) for at least 1 hour prior to the test. Subjects rinsed with water several times to clean the mouth. The samples within a paired comparison test were presented in a randomized, counterbalanced order. Panelists had up to a 1 minute delay between taste tests to clear the mouth of any tastes. Binomial probability tables were used to determine the probability of the correct number of responses occurring for each test at alpha-0.05.
Stock solutions of test compounds were prepared at 1000× final concentration with ethanol to ensure dispersion in solution. Test compound samples including sucrose were prepared by diluting the stock solutions in a low sodium buffer (0.952 g of KCl, 5.444 g of Na2HPO4, and 0.952 g of KH2PO4 in deionized ultrafiltered water) at pH 7.1 and containing sucrose. Test compound samples including high fructose corn syrup were prepared by diluting the stock solutions in the low sodium buffer at pH 2.8 (using citric acid to adjust the pH) and containing high fructose corn syrup. Control samples were balanced to 0.1% ethanol final.
In samples containing the test compound, the test compound was present at a concentration of 10 ppm or less and the concentration of sucrose was 6%. This table indicates the sucrose-alone concentration having a perceived sweetness intensity equivalent to the sweetness intensity of the combination of test compound and sucrose. An “A” value indicates an equivalent sucrose concentration greater than 6% and less than 10%. A “B” value indicates an equivalent sucrose concentration of 10% or greater. […]

Structures are written as SMILES.

As usually defined, the melting point is the temperature, or range, at which the solid turns liquid. The compound `Cc1nc2cccc(O[C@H]3CC[C@H](C)CC3)c2c(N)c1C(=O)O` [Compound 100, 4-Amino-2-methyl-5-((trans-4-methylcyclohexyl)oxy)quinoline-3-carboxylic acid] came in with a melting point of 225 to 228 °C. In data set [1] (1 μM test compound), the “Sucrose Enhancement EC50 Ratio” value was “B (an enhancement ratio from 10 to 20)”. Besides, the “Sucrose Enhancement EC50 Ratio” value in data set [1] (3 μM test compound) is “C (an enhancement ratio greater than 20)”. The “Sucrose Enhancement EC50 Ratio” value in data set [1] (10 μM test compound) is reported as “C (an enhancement ratio greater than 20)”. In addition, the “Equivalent Sucrose Conc.” value in data set [2] is “B (an equivalent sucrose concentration of 10% or greater)”.

`COC[C@H]1CC[C@H](Oc2cccc3nc(C)c(C(=O)O)c(N)c23)CC1` [Compound 101, 4-Amino-5-((trans-4-(methoxymethyl)cyclohexyl)oxy)-2-methylquinoline-3-carboxylic acid]: the “Sucrose Enhancement EC50 Ratio” value in data set [1] (1 μM test compound) is “C (an enhancement ratio greater than 20)”. The “Sucrose Enhancement EC50 Ratio” value in data set [1] (3 μM test compound) is “C (an enhancement ratio greater than 20)”. Besides, in data set [1] (10 μM test compound), the “Fructose Enhancement EC50 Ratio” value is “A (an enhancement ratio of greater than 1 and less than 10)”; the “Sucralose Enhancement EC50 Ratio” value is reported as “C (an enhancement ratio greater than 20)”; the “Sucrose Enhancement EC50 Ratio” value was “C (an enhancement ratio greater than 20)”. Further, the “Equivalent Sucrose Conc.” value in data set [2] was “A (an equivalent sucrose concentration greater than 6% and less than 10%)”.

As for `CCc1nc2cccc(O[C@H]3CC[C@H](C)CC3)c2c(N)c1C(=O)O` [Compound 201], the “Sucrose Enhancement EC50 Ratio” value was “A (an enhancement ratio of greater than 1 and less than 10)” in data set [1] (1 μM test compound); “B (an enhancement ratio from 10 to 20)” in data set [1] (3 μM test compound). Further, the “Equivalent Sucrose Conc.” value in data set [2] was “A (an equivalent sucrose concentration greater than 6% and less than 10%)”.

On to `CCCOCC(=O)N[C@H]1CC[C@H](Oc2cccc3nc(C)c(C(=O)O)c(N)c23)CC1` [Compound 305], for which the “Sucrose Enhancement EC50 Ratio” value in data set [1] (1 μM test compound) is “B (an enhancement ratio from 10 to 20)”; in data set [1] (3 μM test compound) it was “A (an enhancement ratio of greater than 1 and less than 10)”; in data set [1] (10 μM test compound), “A (an enhancement ratio of greater than 1 and less than 10)”. Besides, the “Sucralose Enhancement EC50 Ratio” value in data set [1] (10 μM test compound) was “C (an enhancement ratio greater than 20)”. In addition, in data set [2], the “Equivalent Sucrose Conc.” value is reported as “B (an equivalent sucrose concentration of 10% or greater)”.

With `Cc1nc2cccc(O[C@H]3CC[C@H](NC(=O)COC(C)C)CC3)c2c(N)c1C(=O)O` [Compound 306], the “Sucrose Enhancement EC50 Ratio” value in data set [1] (1 μM test compound) was “B (an enhancement ratio from 10 to 20)”; in data set [1] (3 μM test compound) it was “A (an enhancement ratio of greater than 1 and less than 10)”; in data set [1] (10 μM test compound), “A (an enhancement ratio of greater than 1 and less than 10)”. For the same compound, the “Sucralose Enhancement EC50 Ratio” value in data set [1] (10 μM test compound) was “A (an enhancement ratio of greater than 1 and less than 10)”. Moreover, in data set [2], the “Equivalent Sucrose Conc.” value is “B (an equivalent sucrose concentration of 10% or greater)”.

With `Cc1nc2cccc(O[C@H]3CC[C@H](NC(=O)COCC(C)C)CC3)c2c(N)c1C(=O)O` [Compound 307], the “Sucrose Enhancement EC50 Ratio” value in data set [1] (1 μM test compound) was “A (an enhancement ratio of greater than 1 and less than 10)”. Further, in data set [1] (3 μM test compound), the “Sucralose Enhancement EC50 Ratio” value is given as “B (an enhancement ratio from 10 to 20)” and the “Sucrose Enhancement EC50 Ratio” value is reported as “C (an enhancement ratio greater than 20)”. The “Equivalent Sucrose Conc.” value in data set [2] is reported as “B (an equivalent sucrose concentration of 10% or greater)”.

Turning to `Cc1nc2cccc(O[C@H]3CC[C@H](NC(=O)COC4CCC4)CC3)c2c(N)c1C(=O)O` [Compound 309], the “Sucrose Enhancement EC50 Ratio” value in data set [1] (1 μM test compound) is listed as “B (an enhancement ratio from 10 to 20)”. For the same compound, in data set [1] (3 μM test compound), the “Sucralose Enhancement EC50 Ratio” value is reported as “B (an enhancement ratio from 10 to 20)”; the “Sucrose Enhancement EC50 Ratio” value is “A (an enhancement ratio of greater than 1 and less than 10)”. In addition, in data set [1] (10 μM test compound), the “Fructose Enhancement EC50 Ratio” value is “A (an enhancement ratio of greater than 1 and less than 10)”; the “Sucralose Enhancement EC50 Ratio” value is “B (an enhancement ratio from 10 to 20)”; the “Sucrose Enhancement EC50 Ratio” value is given as “B (an enhancement ratio from 10 to 20)”. Further, the “Equivalent Sucrose Conc.” value in data set [2] is listed as “B (an equivalent sucrose concentration of 10% or greater)”.

Consider `Cc1nc2cccc(O[C@H]3CC[C@H](NC(=O)COC4CCCC4)CC3)c2c(N)c1C(=O)O` [Compound 310], for which the “Sucrose Enhancement EC50 Ratio” value in data set [1] (1 μM test compound) was “C (an enhancement ratio greater than 20)”. Also, the “Sucralose Enhancement EC50 Ratio” value in data set [1] (3 μM test compound) is “B (an enhancement ratio from 10 to 20)”. Also, in data set [1] (10 μM test compound), the “Fructose Enhancement EC50 Ratio” value was “A (an enhancement ratio of greater than 1 and less than 10)”; the “Sucralose Enhancement EC50 Ratio” value was “A (an enhancement ratio of greater than 1 and less than 10)”. Moreover, in data set [2], the “Equivalent Sucrose Conc.” value was “B (an equivalent sucrose concentration of 10% or greater)”.

On to `Cc1nc2cccc(O[C@H]3CC[C@H](NC(=O)COC4CCCCC4)CC3)c2c(N)c1C(=O)O` [Compound 311], for which the “Sucrose Enhancement EC50 Ratio” value in data set [1] (1 μM test compound) is “B (an enhancement ratio from 10 to 20)”; in data set [1] (3 μM test compound) it was “A (an enhancement ratio of greater than 1 and less than 10)”. For the same compound, in data set [1] (3 μM test compound), the “Sucralose Enhancement EC50 Ratio” value is “A (an enhancement ratio of greater than 1 and less than 10)”. Further, the “Equivalent Sucrose Conc.” value in data set [2] is “A (an equivalent sucrose concentration greater than 6% and less than 10%)”.

Consider `Cc1nc2cccc(O[C@H]3CC[C@H](Nc4ncccn4)CC3)c2c(N)c1C(=O)O` [Compound 700, 4-Amino-2-methyl-5-((trans-4-(pyrimidin-2-ylamino)cyclohexyl)oxy) quinolone-3-carboxylic acid], for which the “Sucrose Enhancement EC50 Ratio” value is “A (an enhancement ratio of greater than 1 and less than 10)” in data set [1] (1 μM test compound); “C (an enhancement ratio greater than 20)” in data set [1] (3 μM test compound); “C (an enhancement ratio greater than 20)” in data set [1] (10 μM test compound). In addition, the “Sucralose Enhancement EC50 Ratio” value in data set [1] (3 μM test compound) and in data set [1] (10 μM test compound) was “C (an enhancement ratio greater than 20)” throughout. Also, in data set [2], the “Equivalent Sucrose Conc.” value was “B (an equivalent sucrose concentration of 10% or greater)”.
